In US10363239B2, “Method for inhibiting growth of cancer cells” (Pain Therapeutics, Inc., priority 2013, dated 2019):

test system: mu opiate receptor (MOR); assay: MOR agonist activity using [35S]GTPγS binding assay in striatal membranes; assay type: biochemical; details: 0.1 μM compound
Outline: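 Striatal membranes (200 μg) were preincubated 5 min at 30 °C in HEPES pH 7.5 with 100 mM NaCl, 1 mM MgCl2 and 0.5 nM [35S]GTPγS, then 5 min more with 0.1–10 μM compound. Gαo was immunoprecipitated and bound radioactivity counted by scintillation.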

Compound | MOR agonist activity ([35S]GTPγS binding), FLNA-Binding Compound as Agonist 0.1 μM [%]
CC1CCC(C(C)C)C(OCC(O)CN2CCC2)C1 (stereo not drawn) [Compound A0015] | 110.9
CC1CN(CC(O)COc2ccc(Br)c(F)c2)CC(C)O1 (stereo not drawn) [Compound A0041] | 212.7
CC1CCC(C(C)C)C(OCC(O)CN2CC(C)CC(C)C2)C1 (stereo not drawn) [Compound A0008] | 163.8
CC1CCC(C(C)C)C(OCC(O)CN2CCN(C)CC2)C1 (stereo not drawn) [Compound A0009] | 70.2
Cc1ccc(C(C)C)c(OCC(O)CN2CC(C)OC(C)C2)c1 (stereo not drawn) [Compound A0028] | 143.6

same assay, conditions: 0.1 μM compound relative to DAMGO

Compound | % DAMGO (0.1 μM) [%]
CC1CCC(C(C)C)C(OCC(O)CN2CCC2)C1 (stereo not drawn) [Compound A0015] | 64.8
CC1CN(CC(O)COc2ccc(Br)c(F)c2)CC(C)O1 (stereo not drawn) [Compound A0041] | 108.4
CC1CCC(C(C)C)C(OCC(O)CN2CC(C)CC(C)C2)C1 (stereo not drawn) [Compound A0008] | 109.6
CC1CCC(C(C)C)C(OCC(O)CN2CCN(C)CC2)C1 (stereo not drawn) [Compound A0009] | 39.8
Cc1ccc(C(C)C)c(OCC(O)CN2CC(C)OC(C)C2)c1 (stereo not drawn) [Compound A0028] | 81.3

same assay, conditions: 1 μM compound

Compound | MOR agonist activity ([35S]GTPγS binding), FLNA-Binding Compound as Agonist 1 μM [%]
CC1CCC(C(C)C)C(OCC(O)CN2CCC2)C1 (stereo not drawn) [Compound A0015] | 150.1
CC1CN(CC(O)COc2ccc(Br)c(F)c2)CC(C)O1 (stereo not drawn) [Compound A0041] | 283.6
CC1CCC(C(C)C)C(OCC(O)CN2CC(C)CC(C)C2)C1 (stereo not drawn) [Compound A0008] | 235.0
CC1CCC(C(C)C)C(OCC(O)CN2CCN(C)CC2)C1 (stereo not drawn) [Compound A0009] | 126.4
Cc1ccc(C(C)C)c(OCC(O)CN2CC(C)OC(C)C2)c1 (stereo not drawn) [Compound A0028] | 187.7

same assay, conditions: 1 μM compound + 1 μM β-funaltrexamine

Compound | MOR agonist activity ([35S]GTPγS binding), FLNA-Binding Compound as Agonist 1 μM + BFNA [%]
CC1CCC(C(C)C)C(OCC(O)CN2CCC2)C1 (stereo not drawn) [Compound A0015] | 62.5
CC1CN(CC(O)COc2ccc(Br)c(F)c2)CC(C)O1 (stereo not drawn) [Compound A0041] | 50.6
CC1CCC(C(C)C)C(OCC(O)CN2CC(C)CC(C)C2)C1 (stereo not drawn) [Compound A0008] | 133.9
CC1CCC(C(C)C)C(OCC(O)CN2CCN(C)CC2)C1 (stereo not drawn) [Compound A0009] | 93.9
Cc1ccc(C(C)C)c(OCC(O)CN2CC(C)OC(C)C2)c1 (stereo not drawn) [Compound A0028] | 116.7

same assay, conditions: 1 μM compound + BFNA relative to DAMGO + BFNA

Compound | % DAMGO + BFNA [%]
CC1CCC(C(C)C)C(OCC(O)CN2CCC2)C1 (stereo not drawn) [Compound A0015] | 120.0
CC1CN(CC(O)COc2ccc(Br)c(F)c2)CC(C)O1 (stereo not drawn) [Compound A0041] | 68.5
CC1CCC(C(C)C)C(OCC(O)CN2CC(C)CC(C)C2)C1 (stereo not drawn) [Compound A0008] | 505.3
CC1CCC(C(C)C)C(OCC(O)CN2CCN(C)CC2)C1 (stereo not drawn) [Compound A0009] | 142.9
Cc1ccc(C(C)C)c(OCC(O)CN2CC(C)OC(C)C2)c1 (stereo not drawn) [Compound A0028] | 443.7

same assay, conditions: 1 μM compound relative to DAMGO

Compound | % DAMGO (1 μM) [%]
CC1CCC(C(C)C)C(OCC(O)CN2CCC2)C1 (stereo not drawn) [Compound A0015] | 56.2
CC1CN(CC(O)COc2ccc(Br)c(F)c2)CC(C)O1 (stereo not drawn) [Compound A0041] | 102.8
CC1CCC(C(C)C)C(OCC(O)CN2CC(C)CC(C)C2)C1 (stereo not drawn) [Compound A0008] | 102.1
CC1CCC(C(C)C)C(OCC(O)CN2CCN(C)CC2)C1 (stereo not drawn) [Compound A0009] | 48.7
Cc1ccc(C(C)C)c(OCC(O)CN2CC(C)OC(C)C2)c1 (stereo not drawn) [Compound A0028] | 73.8

same assay, conditions: Series B; 0.1 μM compound, relative to DAMGO

Compound | % DAMGO (0.1 μM) [%]
COc1cccc(CCC(=O)CC2c3c(cc4c(c3OC)OCO4)CC[N+]2(C)C)c1 (stereo not drawn) [Compound B0034] | 71.6
COc1ccc(C(=O)CC2c3c(cc4c(c3OC)OCO4)CC[N+]2(C)C)cc1 (stereo not drawn) [Compound B0024] | 93.2

same assay, conditions: Series B; 0.1 μM compound; [35S]GTPγS binding to Gαo, striatal membranes

Compound | MOR agonist activity, percent [35S]GTPγS binding at the stated compound concentration [%]
COc1cccc(CCC(=O)CC2c3c(cc4c(c3OC)OCO4)CC[N+]2(C)C)c1 (stereo not drawn) [Compound B0034] | 122.5
COc1ccc(C(=O)CC2c3c(cc4c(c3OC)OCO4)CC[N+]2(C)C)cc1 (stereo not drawn) [Compound B0024] | 155.8

same assay, conditions: Series B; 1 μM compound + 1 μM β-FNA

Compound | MOR agonist activity, percent [35S]GTPγS binding at the stated compound concentration [%]
COc1cccc(CCC(=O)CC2c3c(cc4c(c3OC)OCO4)CC[N+]2(C)C)c1 (stereo not drawn) [Compound B0034] | 41.8
COc1ccc(C(=O)CC2c3c(cc4c(c3OC)OCO4)CC[N+]2(C)C)cc1 (stereo not drawn) [Compound B0024] | 20.2

same assay, conditions: Series B; 1 μM compound + β-FNA, relative to DAMGO + BFNA

Compound | % DAMGO + BFNA [%]
COc1cccc(CCC(=O)CC2c3c(cc4c(c3OC)OCO4)CC[N+]2(C)C)c1 (stereo not drawn) [Compound B0034] | 80.2
COc1ccc(C(=O)CC2c3c(cc4c(c3OC)OCO4)CC[N+]2(C)C)cc1 (stereo not drawn) [Compound B0024] | 58.2

same assay, conditions: Series B; 1 μM compound, relative to DAMGO

Compound | % DAMGO (1 μM) [%]
COc1cccc(CCC(=O)CC2c3c(cc4c(c3OC)OCO4)CC[N+]2(C)C)c1 (stereo not drawn) [Compound B0034] | 88.1
COc1ccc(C(=O)CC2c3c(cc4c(c3OC)OCO4)CC[N+]2(C)C)cc1 (stereo not drawn) [Compound B0024] | 116.7

same assay, conditions: Series B; 1 μM compound; [35S]GTPγS binding to Gαo, striatal membranes

Compound | MOR agonist activity, percent [35S]GTPγS binding at the stated compound concentration [%]
COc1cccc(CCC(=O)CC2c3c(cc4c(c3OC)OCO4)CC[N+]2(C)C)c1 (stereo not drawn) [Compound B0034] | 235.2
COc1ccc(C(=O)CC2c3c(cc4c(c3OC)OCO4)CC[N+]2(C)C)cc1 (stereo not drawn) [Compound B0024] | 285.9

biological target: FLNA pentapeptide of SEQ ID NO: 1 (Bn-VAKGL) (Homo sapiens, UniProt P21333); assay: FITC-NLX-based FLNA screening assay (inhibition of FITC-naloxone binding to Bn-VAKGL on streptavidin plates); details: FLNA-binding compound 0.01 μM; 10 nM FITC-NLX; read-out: Percent Binding Inhibition

Compound | inhibition at 0.01 µM [%]
CC1CCC(C(C)C)C(OCC(O)CN2CC(C)CC(C)C2)C1 (stereo not drawn) [Compound A0008] | 34.5
CC1CCC(C(C)C)C(OCC(O)CN2CCN(C)CC2)C1 (stereo not drawn) [Compound A0009] | 26.4
Cc1ccc(C(C)C)c(OCC(O)CN2CC(C)OC(C)C2)c1 (stereo not drawn) [Compound A0028] | 39.5

same assay, conditions: FLNA-binding compound 0.1 μM; 10 nM FITC-NLX; read-out: Percent Binding Inhibition

Compound | inhibition at 0.1 µM [%]
CC1CCC(C(C)C)C(OCC(O)CN2CC(C)CC(C)C2)C1 (stereo not drawn) [Compound A0008] | 33.5
CC1CCC(C(C)C)C(OCC(O)CN2CCN(C)CC2)C1 (stereo not drawn) [Compound A0009] | 37.8
Cc1ccc(C(C)C)c(OCC(O)CN2CC(C)OC(C)C2)c1 (stereo not drawn) [Compound A0028] | 43.8

same assay, conditions: FLNA-binding compound 1 μM; 10 nM FITC-NLX; read-out: Percent Binding Inhibition

Compound | inhibition at 1 µM [%]
CC1CCC(C(C)C)C(OCC(O)CN2CC(C)CC(C)C2)C1 (stereo not drawn) [Compound A0008] | 39.8
CC1CCC(C(C)C)C(OCC(O)CN2CCN(C)CC2)C1 (stereo not drawn) [Compound A0009] | 38.9
Cc1ccc(C(C)C)c(OCC(O)CN2CC(C)OC(C)C2)c1 (stereo not drawn) [Compound A0028] | 50.5

same assay, conditions: read-out: Percent Binding Inhibition, FLNA-binding compound 0.01 μM; 10 nM FITC-NLX

Compound | inhibition at 0.01 µM [%]
CC1CCC(C(C)C)C(OCC(O)CN2CCC2)C1 (stereo not drawn) [Compound A0015] | 36.3
COc1cccc(CCC(=O)CC2c3c(cc4c(c3OC)OCO4)CC[N+]2(C)C)c1 (stereo not drawn) [Compound B0034] | 49.1
CC1CN(CC(O)COc2ccc(Br)c(F)c2)CC(C)O1 (stereo not drawn) [Compound A0041] | 45.8
COc1ccc(C(=O)CC2c3c(cc4c(c3OC)OCO4)CC[N+]2(C)C)cc1 (stereo not drawn) [Compound B0024] | 34.8

same assay, conditions: read-out: Percent Binding Inhibition, FLNA-binding compound 0.1 μM; 10 nM FITC-NLX

Compound | inhibition at 0.1 µM [%]
CC1CCC(C(C)C)C(OCC(O)CN2CCC2)C1 (stereo not drawn) [Compound A0015] | 46.8
COc1cccc(CCC(=O)CC2c3c(cc4c(c3OC)OCO4)CC[N+]2(C)C)c1 (stereo not drawn) [Compound B0034] | 54.2
CC1CN(CC(O)COc2ccc(Br)c(F)c2)CC(C)O1 (stereo not drawn) [Compound A0041] | 51.7
COc1ccc(C(=O)CC2c3c(cc4c(c3OC)OCO4)CC[N+]2(C)C)cc1 (stereo not drawn) [Compound B0024] | 43.4

same assay, conditions: read-out: Percent Binding Inhibition, FLNA-binding compound 1 μM; 10 nM FITC-NLX

Compound | inhibition at 1 µM [%]
CC1CCC(C(C)C)C(OCC(O)CN2CCC2)C1 (stereo not drawn) [Compound A0015] | 55
COc1cccc(CCC(=O)CC2c3c(cc4c(c3OC)OCO4)CC[N+]2(C)C)c1 (stereo not drawn) [Compound B0034] | 59.1
CC1CN(CC(O)COc2ccc(Br)c(F)c2)CC(C)O1 (stereo not drawn) [Compound A0041] | 56.9
COc1ccc(C(=O)CC2c3c(cc4c(c3OC)OCO4)CC[N+]2(C)C)cc1 (stereo not drawn) [Compound B0024] | 47.7
